Assay results as given in patent US20250296938A1, “Compounds that Interact with the Ras Superfamily for the Treatment of Cancers, Inflammatory Diseases, Rasopathies, and Fibrotic Disease” (SHY Therapeutics, LLC, priority 2018, published 2025).
Where two headings read alike, the source gives them in different places.

Assays:
Experiment in all cases: Ras GTP binding domain inhibition assay (Cy3-GTP/Cy5-GTP competition)
KRas G12C mutant = tested on: KRas G12C mutant; design: species or system human; settings: 20 μM; for KRas G12C mutant + SOS: % inh.: with SOS (Table 7A); for KRas G12C mutant: % inh.: without SOS (Table 7A)
Procedure, shortened: (§1)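 His-tagged Ras immobilized on nickel-coated wells in Tris buffer (pH 7.4 or 7.0) with 1 mM MgCl2, 1 mM DTT, 1% DMSO. Compound (20 μM, or serial dilution for IC50) incubated 3 hours at room temperature, ± Sos (residues 556-1049) in final hour. Bound 100 nM Cy3-/Cy5-GTP read after 45 minutes and washing.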

KRas wild type = tested on: KRas wild type; design: species or system human; settings: 20 μM; for KRas wild type + SOS: % inh.: with SOS (Table 7A); for KRas wild type % inh.: without SOS (Table 7A)
Procedure, shortened: as §1

KRas Q61H mutant = tested on: KRas Q61H mutant; design: species or system human; settings: 20 μM; for KRas Q61H mutant + SOS: % inh.: with SOS (Table 7A); for KRas Q61H mutant: % inh.: without SOS (Table 7A)
Procedure, shortened: as §1

KRas G12D mutant = target: T1, KRas G12D mutant (Homo sapiens, UniProt P01116, G12D); settings: 20 μM
T1 construct: fused on or other part: His tag, used for capture on nickel-coated plates
Procedure, shortened: as §1

[1] = with SOS (Table 7A), read-out: KRas G12D mutant + SOS: % inh.
[2] = without SOS (Table 7A), read-out: KRas G12D mutant: % inh.

| Structure (SMILES) | KRas G12C mutant + SOS: % inh. (KRas G12C mutant) | KRas G12C mutant: % inh. (KRas G12C mutant) | KRas wild type + SOS: % inh. (KRas wild type) | KRas wild type % inh. (KRas wild type) | KRas Q61H mutant + SOS: % inh. (KRas Q61H mutant) | KRas Q61H mutant: % inh. (KRas Q61H mutant) | inhibition at 20 µM (KRas G12D mutant; [1]) [%] | inhibition at 20 µM (KRas G12D mutant; [2]) [%] |
| --- | --- | --- | --- | --- | --- | --- | --- | --- |
| CO[C@H]1C[C@@H](Nc2nc(-c3ncc[nH]3)nc3sc(-c4ccn(C)n4)c(-c4ccccc4)c23)C1 [drawing 910] | B (26-50% inhibition) | B (26-50% inhibition) | A (1-25% inhibition) | B (26-50% inhibition) | B (26-50% inhibition) | C (51-75% inhibition) | 26 to 50 | 26 to 50 |
| CO[C@H]1CC[C@@H](Nc2nc(-c3ncc[nH]3)nc3sc(-c4ccn(C)n4)c(-c4ccccc4)c23)C1 [drawing 911] | C (51-75% inhibition) | C (51-75% inhibition) | C (51-75% inhibition) | C (51-75% inhibition) | C (51-75% inhibition) | B (26-50% inhibition) | 51 to 75 | 26 to 50 |
| CO[C@H]1CC[C@@H](Nc2nc(-c3nccn3C)nc3sc(-c4ccn(C(C)C)n4)c(-c4ccccc4)c23)C1 [drawing 912] | D (76-100% inhibition) | C (51-75% inhibition) | D (76-100% inhibition) | D (76-100% inhibition) | D (76-100% inhibition) | D (76-100% inhibition) | 51 to 75 | 51 to 75 |
| COc1nc(-c2ccccn2)nc2c(-c3ccccn3)csc12 [drawing 913] | A (1-25% inhibition) | A (1-25% inhibition) | A (1-25% inhibition) | B (26-50% inhibition) | A (1-25% inhibition) | B (26-50% inhibition) | 1 to 25 | 26 to 50 |
| CO[C@H]1C[C@@H](Nc2nc(-c3nccn3C)nc3sc(-c4ccn(C)n4)c(C)c23)C1 [drawing 914] | C (51-75% inhibition) | C (51-75% inhibition) | C (51-75% inhibition) | C (51-75% inhibition) | C (51-75% inhibition) | C (51-75% inhibition) | 51 to 75 | 51 to 75 |
| CO[C@H]1CC[C@@H](Nc2nc(-c3nccn3C)nc3sc(-c4ccn(C)n4)c(C)c23)C1 [drawing 915] | D (76-100% inhibition) | C (51-75% inhibition) | D (76-100% inhibition) | C (51-75% inhibition) | D (76-100% inhibition) | C (51-75% inhibition) | 51 to 75 | 26 to 50 |
| Cc1c(-c2ccn(C)n2)sc2nc(-c3nccn3C)nc(NCCCS(C)(=O)=O)c12 [drawing 916] | C (51-75% inhibition) | C (51-75% inhibition) | C (51-75% inhibition) | C (51-75% inhibition) | C (51-75% inhibition) | D (76-100% inhibition) | 76 to 100 | 76 to 100 |
| Cc1c(-c2ccn(C)n2)sc2nc(-c3nccn3C)nc(NCCCC(=O)N(C)C)c12 [drawing 917] | C (51-75% inhibition) | C (51-75% inhibition) | C (51-75% inhibition) | D (76-100% inhibition) | C (51-75% inhibition) | D (76-100% inhibition) | 76 to 100 | 51 to 75 |
